System: authentic SARS-CoV-2 Delta variant
Details: 48 h

**Q.** How did the IC50 turn out when `CC[C@H](C)[C@H](NC(=O)[C@H](C)NC(=O)[C@H](CCC(=O)O)NC(=O)[C@H](CCC(=O)O)NC(=O)[C@H](CC(C)C)NC(=O)[C@H](CCCCN)NC(=O)[C@H](CCCCN)NC(=O)[C@H](CCSC)NC(=O)[C@H](CCC(=O)O)NC(=O)[C@H](Cc1ccc(O)cc1)NC(=O)[C@H](CCC(=O)O)NC(=O)[C@H](CC(C)C)NC(=O)[C@H](CC(=O)O)NC(=O)[C@H](CC(C)C)NC(=O)[C@H](Cc1ccccc1)NC(=O)[C@@H](NC(=O)[C@@H](NC(=O)[C@H](CC(N)=O)NC(=O)[C@@H](NC(=O)[C@H](CCC(N)=O)NC(=O)[C@H](CC(=O)O)NC(=O)[C@H](CC(C)C)NC(=O)[C@@H](N)CO)[C@@H](C)CC)C(C)C)[C@@H](C)O)C(=O)N[C@@H](CCCCN)C(=O)N[C@@H](CCCCN)C(=O)N[C@@H](CC(C)C)C(=O)N[C@@H](CCC(=O)O)C(=O)N[C@@H](CCC(=O)O)C(=O)N[C@@H](CO)C(=O)N[C@@H](Cc1ccc(O)cc1)C(=O)N[C@H](C(=O)N[C@@H](CC(=O)O)C(=O)N[C@@H](CC(C)C)C(=O)N[C@@H](CCCCN)C(=O)N[C@@H](CCC(=O)O)C(=O)N[C@@H](CC(C)C)C(=O)O)[C@@H](C)CC` [EK1] was run?
**A.** 2860 nM

From PMC10184535, “An HR2-Mimicking Sulfonyl-γ-AApeptide Is a Potent Pan-coronavirus Fusion Inhibitor with Strong Blood–Brain Barrier Permeability, Long Half-Life, and Promising Oral Bioavailability” (ACS Central Science, 2023)
